In article PMC7048932, “Examining sterically demanding lysine analogs for histone lysine methyltransferase catalysis” (Scientific Reports, 2020):

Biological target: T1, G9a (Homo sapiens, UniProt Q96KQ7)
T1 construct: His6 (N); made in house; host or cells: E. coli BL21 (DE3)pLysS-rosetta
T1 sequence (Q96KQ7 1-1210): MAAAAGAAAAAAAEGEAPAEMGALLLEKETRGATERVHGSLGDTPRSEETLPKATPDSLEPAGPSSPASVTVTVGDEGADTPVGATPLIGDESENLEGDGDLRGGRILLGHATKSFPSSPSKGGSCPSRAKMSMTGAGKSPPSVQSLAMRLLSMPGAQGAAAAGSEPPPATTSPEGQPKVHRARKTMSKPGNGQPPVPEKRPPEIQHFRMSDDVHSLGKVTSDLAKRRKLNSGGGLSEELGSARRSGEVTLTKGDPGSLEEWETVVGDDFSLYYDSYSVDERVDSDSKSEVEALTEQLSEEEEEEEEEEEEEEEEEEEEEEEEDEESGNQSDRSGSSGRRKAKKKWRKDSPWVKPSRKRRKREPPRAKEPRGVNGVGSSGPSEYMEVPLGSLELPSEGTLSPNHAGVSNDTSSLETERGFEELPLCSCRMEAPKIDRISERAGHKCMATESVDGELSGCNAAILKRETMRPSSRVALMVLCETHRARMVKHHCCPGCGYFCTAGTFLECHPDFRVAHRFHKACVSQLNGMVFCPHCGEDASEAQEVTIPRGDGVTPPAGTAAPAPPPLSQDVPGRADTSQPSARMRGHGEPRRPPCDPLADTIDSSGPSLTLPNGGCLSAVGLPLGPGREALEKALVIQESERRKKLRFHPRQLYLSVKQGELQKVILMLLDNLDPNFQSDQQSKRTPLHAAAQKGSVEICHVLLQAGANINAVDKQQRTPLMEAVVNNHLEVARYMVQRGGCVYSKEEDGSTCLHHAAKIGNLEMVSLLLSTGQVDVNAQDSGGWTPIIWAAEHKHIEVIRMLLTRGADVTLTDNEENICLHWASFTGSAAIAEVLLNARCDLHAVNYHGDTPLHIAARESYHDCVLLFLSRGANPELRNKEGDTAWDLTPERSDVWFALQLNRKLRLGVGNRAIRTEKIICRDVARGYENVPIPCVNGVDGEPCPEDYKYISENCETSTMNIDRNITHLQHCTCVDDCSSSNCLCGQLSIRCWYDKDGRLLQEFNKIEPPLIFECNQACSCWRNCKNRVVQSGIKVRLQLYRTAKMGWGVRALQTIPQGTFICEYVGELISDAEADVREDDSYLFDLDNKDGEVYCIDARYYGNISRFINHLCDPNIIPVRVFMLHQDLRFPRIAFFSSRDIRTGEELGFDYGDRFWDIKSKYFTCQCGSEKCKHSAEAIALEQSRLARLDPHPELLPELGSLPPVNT
Assay: MALDI-TOF MS methylation assay of H3K9 peptides with G9a
Format: biochemical
Settings: peptide 100 µM, G9a 2 µM, SAM 500 µM, 1 h, 37 °C
Experimental: MALDI-MS methyltransferases activity experiments were performed using a Bruker instrument in the reflectron positive mode. For regular methyltransferase standard conditions experiment which carried out in 30 µL total volume, the mixture contains peptide (100 µM), SAM (200 µM), SETD8 or SETD7 (2 µM), in assay buffer 50 mM Tris at optimal pH 8.0. In case of G9a and GLP, similar conditions were used, except (500 µM) of SAM was added to the reaction mixture. Samples were incubated in an Eppendorf vial 1.5 mL using thermomixer for 1 h at 37 °C. A 5 µL aliquot of the solution was mixed with 5 µL of MeOH, after which 5 µL of this mixture was mixed with 5 µL of α-cyano-4-hydroxycinamic acid matrix (CHCA, 5 mg/mL in 125:125 µL acetonitrile/water). The spots were placed on a stainless steel MALDI plate (MS 96 target ground steel BC of Bruker, Germany). The mass corresponding to one monomethylation observed as +14 Da, dimethylation observed as +28 Da and trimethylation observed as +42 Da. The enzymatic activity was determined by taking the peak areas of each methylation state, including all isotopes and adducts, and was annotated using FlexAnalysis software (Bruker Daltonics, Germany). […] Methylated peptide substrates were repeated five times and the unmethylated substrates were triplicated. Sequences of the examined peptides are given in (Supplementary Table 1).

G9a-catalyzed methylation, result in words: traces detected
G9a-catalyzed methylation, result in words (listed as H3K ba9): trace of monomethylation
Substance: ARTKQTAR(Kba9)STGGKA [H3Kba9]
